In the Kinase Knowledgebase extract (Sharma et al. 2016):
pIC50: −log10 of the molar value.

Columns and labels:
EGFR = EGFR (UniProt P00533)
EGFR (Balb/c mice) [1] = target: EGFR (Balb/c mice) (UniProt P00533); conditions: balb/c3t3
EGFR (Balb/c mice) [2] = target: EGFR (Balb/c mice) (UniProt P00533); conditions: balb/mk cells
EGFR (human) = EGFR (human) (UniProt P00533); conditions: a431
Sequence of EGFR (human) (P00533 whole entry, looked up): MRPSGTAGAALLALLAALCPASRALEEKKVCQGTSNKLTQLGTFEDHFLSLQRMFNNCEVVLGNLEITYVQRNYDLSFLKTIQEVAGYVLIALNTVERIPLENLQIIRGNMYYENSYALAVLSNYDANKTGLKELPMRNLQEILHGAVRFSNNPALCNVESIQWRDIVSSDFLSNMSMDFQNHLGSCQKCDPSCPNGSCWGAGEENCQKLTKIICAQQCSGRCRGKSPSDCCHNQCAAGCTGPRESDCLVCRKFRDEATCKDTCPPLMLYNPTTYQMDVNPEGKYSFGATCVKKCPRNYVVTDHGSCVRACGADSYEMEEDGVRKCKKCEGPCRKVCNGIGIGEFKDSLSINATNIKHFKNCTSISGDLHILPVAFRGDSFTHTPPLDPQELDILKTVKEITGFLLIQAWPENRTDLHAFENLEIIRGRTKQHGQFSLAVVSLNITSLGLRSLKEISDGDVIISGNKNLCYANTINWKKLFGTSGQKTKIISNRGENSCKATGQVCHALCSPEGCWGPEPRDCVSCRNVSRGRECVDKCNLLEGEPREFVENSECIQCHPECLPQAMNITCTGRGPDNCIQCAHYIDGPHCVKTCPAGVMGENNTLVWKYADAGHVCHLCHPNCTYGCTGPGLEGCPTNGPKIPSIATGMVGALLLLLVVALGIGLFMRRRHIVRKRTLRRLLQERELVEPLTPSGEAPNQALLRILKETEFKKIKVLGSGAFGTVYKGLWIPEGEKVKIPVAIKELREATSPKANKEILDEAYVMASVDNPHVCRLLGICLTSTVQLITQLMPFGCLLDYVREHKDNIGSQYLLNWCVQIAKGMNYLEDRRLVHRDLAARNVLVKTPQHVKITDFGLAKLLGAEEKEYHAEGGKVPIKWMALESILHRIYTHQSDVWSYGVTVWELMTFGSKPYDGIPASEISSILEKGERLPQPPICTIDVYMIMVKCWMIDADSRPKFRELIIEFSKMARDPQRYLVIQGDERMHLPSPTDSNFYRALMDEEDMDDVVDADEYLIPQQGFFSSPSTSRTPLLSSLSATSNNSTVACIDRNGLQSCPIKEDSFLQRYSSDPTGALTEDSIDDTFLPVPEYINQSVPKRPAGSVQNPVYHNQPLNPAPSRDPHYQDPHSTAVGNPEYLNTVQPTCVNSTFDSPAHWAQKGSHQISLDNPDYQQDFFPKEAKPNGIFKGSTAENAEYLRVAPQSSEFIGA

Sequence of EGFR (P00533 whole entry, looked up): as above

| pIC50 (EGFR) | pIC50 (EGFR (Balb/c mice) [1]) | pIC50 (EGFR (Balb/c mice) [2]) | IC100 (EGFR (human)) | Structure (SMILES) |
| --- | --- | --- | --- | --- |
| 6.00 to 9.30 | 7.00 to 9.00 | 6.00 to 7.00 |  | CON=Cc1cc2c(Nc3cccc(Cl)c3)ncnc2[nH]1 |
| 6.00 to 9.30 | 7.00 to 9.00 | 6.00 to 7.00 |  | CC(C)OC(=O)Nc1ccc(-c2cc3c(Nc4cccc(Cl)c4)ncnc3[nH]2)cc1 |
| 6.00 to 9.30 | 7.00 to 9.00 | 6.00 to 7.00 |  | COc1cc(-c2cc3c(Nc4ccccc4)ncnc3[nH]2)ccc1O |
| 6.00 to 9.30 | 7.00 to 9.00 | 6.00 to 7.00 |  | C[C@@H](Nc1ncnc2[nH]c(-c3cccc(N=CN(C)C)c3)cc12)c1ccccc1 |
| 6.00 to 9.30 | 7.00 to 9.00 | 6.00 to 7.00 |  | COc1cc(-c2cc3c(Nc4cccc(Cl)c4)ncnc3[nH]2)ccc1OCc1ccccc1 |
| 6.00 to 9.30 | 7.00 to 9.00 | 6.00 to 7.00 |  | CCS(=O)(=O)Nc1cccc(-c2cc3c(N[C@H](C)c4ccccc4)ncnc3[nH]2)c1 |
| 6.00 to 9.30 | 7.00 to 9.00 | 6.00 to 7.00 |  | Cc1nc(-c2cc3c(Nc4cccc(Cl)c4)ncnc3[nH]2)sc1C |
| 6.00 to 9.30 | 7.00 to 9.00 | 6.00 to 7.00 |  | OCc1ccc(-c2cc3c(Nc4cccc(Cl)c4)ncnc3[nH]2)cc1 |
| 6.00 to 9.30 | 7.00 to 9.00 | 6.00 to 7.00 |  | COc1ccc(-c2cc3c(N[C@H](C)c4ccccc4)ncnc3[nH]2)cc1 |
| 6.00 to 9.30 | 7.00 to 9.00 | 6.00 to 7.00 |  | CCN(C=Nc1ccc(-c2cc3c(Nc4cccc(Cl)c4)ncnc3[nH]2)cc1)CC |
| 6.00 to 9.30 | 7.00 to 9.00 | 6.00 to 7.00 |  | CS(=O)(=O)Nc1cccc(-c2cc3c(Nc4cccc(Cl)c4)ncnc3[nH]2)c1 |
| 6.00 to 9.30 | 7.00 to 9.00 | 6.00 to 7.00 |  | Cn1nnc(-c2cc3c(Nc4cccc(Cl)c4)ncnc3[nH]2)n1.Cn1nnnc1-c1cc2c(Nc3cccc(Cl)c3)ncnc2[nH]1 |
| 6.00 to 9.30 | 7.00 to 9.00 | 6.00 to 7.00 |  | COC(=O)Nc1ccc(-c2cc3c(Nc4cccc(Cl)c4)ncnc3[nH]2)cc1 |
| 6.00 to 9.30 | 7.00 to 9.00 | 6.00 to 7.00 |  | C[C@@H](Nc1ncnc2[nH]c(-c3ccc(N=CN(C)C)cc3)cc12)c1ccccc1 |
| 6.00 to 9.30 | 7.00 to 9.00 | 6.00 to 7.00 |  | Clc1cccc(Nc2ncnc3[nH]c(-c4ccc(NCc5ccccc5)cc4)cc23)c1 |
| 6.00 to 9.30 | 7.00 to 9.00 | 6.00 to 7.00 |  | Clc1cccc(Nc2ncnc3[nH]c(-c4ccc(N=CN5CCCCC5)cc4)cc23)c1 |
| 6.00 to 9.30 | 7.00 to 9.00 | 6.00 to 7.00 |  | CN(C)C=Nc1ccc(-c2cc3c(Nc4cccc(Cl)c4)ncnc3[nH]2)cc1 |
| 6.00 to 9.30 | 7.00 to 9.00 | 6.00 to 7.00 |  | CN1CCN(C(=O)c2ccc(-c3cc4c(Nc5cccc(Cl)c5)ncnc4[nH]3)cc2)CC1 |
| 6.00 to 9.30 | 7.00 to 9.00 | 6.00 to 7.00 |  | O=S(=O)(Nc1ccc(-c2cc3c(Nc4cccc(Cl)c4)ncnc3[nH]2)cc1)c1ccccc1 |
| 6.00 to 9.30 | 7.00 to 9.00 | 6.00 to 7.00 |  | CCc1csc(-c2cc3c(Nc4cccc(Cl)c4)ncnc3[nH]2)n1 |
| 6.00 to 9.30 | 7.00 to 9.00 | 6.00 to 7.00 |  | CCN(C=Nc1cccc(-c2cc3c(Nc4cccc(Cl)c4)ncnc3[nH]2)c1)CC |
| 6.00 to 9.30 | 7.00 to 9.00 | 6.00 to 7.00 |  | Oc1ccc(CNCc2cc3c(Nc4cccc(Cl)c4)ncnc3[nH]2)cc1 |

| pIC50 (EGFR) | pIC50 (EGFR (Balb/c mice) [1]) | pIC50 (EGFR (Balb/c mice) [2]) | IC100 (EGFR (human)) | Structure (SMILES) |
| --- | --- | --- | --- | --- |
| 6.00 to 9.30 | 7.00 to 9.00 | 6.00 to 7.00 |  | COc1ccc(CNCc2cc3c(Nc4cccc(Cl)c4)ncnc3[nH]2)cc1 |
| 6.00 to 9.30 | 7.00 to 9.00 | 6.00 to 7.00 |  | COc1ccc(-c2csc(-c3cc4c(Nc5cccc(Cl)c5)ncnc4[nH]3)n2)cc1 |
| 6.00 to 9.30 | 7.00 to 9.00 | 6.00 to 7.00 |  | CCNC(=S)Nc1ccc(-c2cc3c(Nc4cccc(Cl)c4)ncnc3[nH]2)cc1 |
| 6.00 to 9.30 | 7.00 to 9.00 | 6.00 to 7.00 |  | CN1CCN(C=Nc2ccc(-c3cc4c(Nc5cccc(Cl)c5)ncnc4[nH]3)cc2)CC1 |
| 6.00 to 9.30 | 7.00 to 9.00 | 6.00 to 7.00 |  | O=C(Nc1ccccc1)Nc1cccc(-c2cc3c(Nc4cccc(Cl)c4)ncnc3[nH]2)c1 |
| 6.00 to 9.30 | 7.00 to 9.00 | 6.00 to 7.00 |  | COc1cc(-c2cc3c(Nc4cccc(C)c4)ncnc3[nH]2)ccc1O |
| 6.00 to 9.30 | 7.00 to 9.00 | 6.00 to 7.00 |  | O=C(Nc1ccc(-c2cc3c(Nc4cccc(Cl)c4)ncnc3[nH]2)cc1)c1cccs1 |
| 6.00 to 9.30 | 7.00 to 9.00 | 6.00 to 7.00 |  | OCCN(CCO)Cc1cc2c(Nc3cccc(Cl)c3)ncnc2[nH]1 |
| 6.00 to 9.30 | 7.00 to 9.00 | 6.00 to 7.00 |  | Clc1cccc(Nc2ncnc3[nH]c(-c4ccc(N=CN5CCOCC5)cc4)cc23)c1 |
| 6.00 to 9.30 | 7.00 to 9.00 | 6.00 to 7.00 |  | CC(C)S(=O)(=O)Nc1cccc(-c2cc3c(Nc4cccc(Cl)c4)ncnc3[nH]2)c1 |
| 6.00 to 9.30 | 7.00 to 9.00 | 6.00 to 7.00 |  | O=C(c1cc2c(Nc3cccc(Cl)c3)ncnc2[nH]1)N1CCOCC1 |
| 6.00 to 9.30 | 7.00 to 9.00 | 6.00 to 7.00 |  | Clc1cccc(Nc2ncnc3[nH]c(CN4CCOCC4)cc23)c1 |
| 6.00 to 9.30 | 7.00 to 9.00 | 6.00 to 7.00 |  | COc1cc(-c2cc3c(Nc4cccc(C)c4)ncnc3[nH]2)ccc1OCc1ccccc1 |
| 6.00 to 9.30 | 7.00 to 9.00 | 6.00 to 7.00 |  | CNC(=S)Nc1cccc(-c2cc3c(N[C@H](C)c4ccccc4)ncnc3[nH]2)c1 |
| 6.00 to 9.30 | 7.00 to 9.00 | 6.00 to 7.00 |  | C[C@@H](Nc1ncnc2[nH]c(-c3cccc(NS(C)(=O)=O)c3)cc12)c1ccccc1 |
| 6.00 to 9.30 | 7.00 to 9.00 | 6.00 to 7.00 |  | O=C(Nc1ccc(-c2cc3c(Nc4cccc(Cl)c4)ncnc3[nH]2)cc1)c1ccco1 |
| 6.00 to 9.30 | 7.00 to 9.00 | 6.00 to 7.00 |  | CC(C)S(=O)(=O)Nc1cccc(-c2cc3c(N[C@H](C)c4ccccc4)ncnc3[nH]2)c1 |
| 6.00 to 9.30 | 7.00 to 9.00 | 6.00 to 7.00 |  | CCS(=O)(=O)Nc1ccc(-c2cc3c(Nc4cccc(Cl)c4)ncnc3[nH]2)cc1 |
| 6.00 to 9.30 | 7.00 to 9.00 | 6.00 to 7.00 |  | CCS(=O)(=O)Nc1cccc(-c2cc3c(Nc4cccc(Cl)c4)ncnc3[nH]2)c1 |
| 6.00 to 9.30 | 7.00 to 9.00 | 6.00 to 7.00 |  | CNC(=S)Nc1cccc(-c2cc3c(Nc4cccc(Cl)c4)ncnc3[nH]2)c1 |
| 6.00 to 9.30 | 7.00 to 9.00 | 6.00 to 7.00 |  | NC(=S)c1cc2c(Nc3cccc(Cl)c3)ncnc2[nH]1 |
| 6.00 to 9.30 | 7.00 to 9.00 | 6.00 to 7.00 |  | CC(C)S(=O)(=O)Nc1ccc(-c2cc3c(Nc4cccc(Cl)c4)ncnc3[nH]2)cc1 |

| pIC50 (EGFR) | pIC50 (EGFR (Balb/c mice) [1]) | pIC50 (EGFR (Balb/c mice) [2]) | IC100 (EGFR (human)) | Structure (SMILES) |
| --- | --- | --- | --- | --- |
| 6.00 to 9.30 | 7.00 to 9.00 | 6.00 to 7.00 |  | CNC(=S)Nc1ccc(-c2cc3c(N[C@H](C)c4ccccc4)ncnc3[nH]2)cc1 |
| 6.00 to 9.30 | 7.00 to 9.00 | 6.00 to 7.00 |  | CCNC(=O)Nc1cccc(-c2cc3c(N[C@H](C)c4ccccc4)ncnc3[nH]2)c1 |
| 6.00 to 9.30 | 7.00 to 9.00 | 6.00 to 7.00 |  | Clc1cccc(Nc2ncnc3[nH]c(-c4cccc(N=CN5CCOCC5)c4)cc23)c1 |
| 6.00 to 9.30 | 7.00 to 9.00 | 6.00 to 7.00 |  | CC(C)C(=Nc1ccc(-c2cc3c(Nc4cccc(Cl)c4)ncnc3[nH]2)cc1)N(C)C |
| 6.00 to 9.30 | 7.00 to 9.00 | 6.00 to 7.00 |  | CC(C)COC(=O)Nc1ccc(-c2cc3c(Nc4cccc(Cl)c4)ncnc3[nH]2)cc1 |
| 6.00 to 9.30 | 7.00 to 9.00 | 6.00 to 7.00 |  | CN(C)C=Nc1cccc(-c2cc3c(Nc4cccc(Cl)c4)ncnc3[nH]2)c1 |
| 6.00 to 9.30 | 7.00 to 9.00 | 6.00 to 7.00 |  | COc1cc(-c2cc3c(Nc4cccc(Cl)c4)ncnc3[nH]2)ccc1O |
| 6.00 to 9.30 | 7.00 to 9.00 | 6.00 to 7.00 |  | ON=Cc1cc2c(Nc3cccc(Cl)c3)ncnc2[nH]1 |
| 6.00 to 9.30 | 7.00 to 9.00 | 6.00 to 7.00 |  | O=C(c1ccc(-c2cc3c(Nc4cccc(Cl)c4)ncnc3[nH]2)cc1)N1CCOCC1 |
| 6.00 to 9.30 | 7.00 to 9.00 | 6.00 to 7.00 |  | CCNC(=O)Nc1ccc(-c2cc3c(N[C@H](C)c4ccccc4)ncnc3[nH]2)cc1 |
| 6.00 to 9.30 | 7.00 to 9.00 | 6.00 to 7.00 |  | CCOC(=O)Nc1ccc(-c2cc3c(Nc4cccc(Cl)c4)ncnc3[nH]2)cc1 |
| 6.00 to 9.30 | 7.00 to 9.00 | 6.00 to 7.00 |  | CN1CCN(Cc2cc3c(Nc4cccc(Cl)c4)ncnc3[nH]2)CC1 |
| 6.00 to 9.30 | 7.00 to 9.00 | 6.00 to 7.00 |  | C[C@@H](Nc1ncnc2[nH]c(-c3cccc(NCc4ccccc4)c3)cc12)c1ccccc1 |
| 6.00 to 9.30 | 7.00 to 9.00 | 6.00 to 7.00 |  | CCS(=O)(=O)Nc1ccc(-c2cc3c(N[C@H](C)c4ccccc4)ncnc3[nH]2)cc1 |
| 6.00 to 9.30 | 7.00 to 9.00 | 6.00 to 7.00 |  | CS(=O)(=O)Nc1ccc(-c2cc3c(Nc4cccc(Cl)c4)ncnc3[nH]2)cc1 |
| 6.00 to 9.30 | 7.00 to 9.00 | 6.00 to 7.00 |  | Clc1cccc(Nc2ncnc3[nH]c(-c4nnn[nH]4)cc23)c1 |
| 6.00 to 9.30 | 7.00 to 9.00 | 6.00 to 7.00 |  | C[C@@H](Nc1ncnc2[nH]c(-c3ccc(NS(C)(=O)=O)cc3)cc12)c1ccccc1 |
| 6.00 to 9.30 | 7.00 to 9.00 | 6.00 to 7.00 |  | CCNC(=O)Nc1ccc(-c2cc3c(Nc4cccc(Cl)c4)ncnc3[nH]2)cc1 |
| 6.00 to 9.30 | 7.00 to 9.00 | 6.00 to 7.00 |  | Clc1cccc(Nc2ncnc3[nH]c(-c4nccs4)cc23)c1 |
| 6.00 to 9.30 | 7.00 to 9.00 | 6.00 to 7.00 |  | CCNC(=O)Nc1cccc(-c2cc3c(Nc4cccc(Cl)c4)ncnc3[nH]2)c1 |
| 6.00 to 9.30 | 7.00 to 9.00 | 6.00 to 7.00 | Between 0.001 to 1.000 uM | CN1CCN(C(=O)c2cc3c(Nc4cccc(Cl)c4)ncnc3[nH]2)CC1 |
| 6.00 to 9.30 | 7.00 to 9.00 | 6.00 to 7.00 |  | CC(C)S(=O)(=O)Nc1ccc(-c2cc3c(N[C@H](C)c4ccccc4)ncnc3[nH]2)cc1 |
